Measurements as given in the NIST ThermoML archive (doi:10.1016/j.jct.2011.08.015).
± gives the expanded uncertainty stated by the source.

Key:
[1] = for surface tension liquid-gas: Drop volume; for electrical conductivity / viscosity / speed of sound / mass density: 101.33 kPa, Liquid; for electrical conductivity: CRISON model GLP31; for viscosity: Capillary tube (Ostwald / Ubbelohde) method; for speed of sound: Sing-around technique in a fixed-path interferometer; for mass density: Vibrating tube method
[2] = molar heat capacity at constant pressure; details: 101.33 kPa, Liquid, Small sample (50 mg) DSC
[3] = refractive index (Na D-line) (dimensionless); details: 101.33 kPa, Liquid, Standard Abbe refractometry

## CCC[n+]1ccccc1.F[B-](F)(F)F [1-propylpyridinium tetrafluoroborate]
[1]; 278.15 K
  surface tension liquid-gas: 52.55 ± 0.57 mN/m
  electrical conductivity: 0.102 ± 0.0036 S/m
  viscosity: 461.4 ± 18 mPa·s
  speed of sound: 1691.9 ± 2.9 m/s
  mass density: 1267.63 ± 1.4 kg/m3
[1]; 280.65 K
  surface tension liquid-gas: 52.35 ± 0.57 mN/m
  electrical conductivity: 0.123 ± 0.0041 S/m
  viscosity: 379.1 ± 14 mPa·s
  speed of sound: 1685.4 ± 2.9 m/s
  mass density: 1265.78 ± 1.4 kg/m3
[1]; 283.15 K
  surface tension liquid-gas: 52.16 ± 0.57 mN/m
  electrical conductivity: 0.151 ± 0.0049 S/m
  viscosity: 314.2 ± 10 mPa·s
  speed of sound: 1678.9 ± 2.9 m/s
  mass density: 1263.92 ± 1.4 kg/m3
[1]; 285.65 K
  surface tension liquid-gas: 51.94 ± 0.56 mN/m
  electrical conductivity: 0.181 ± 0.0054 S/m
  viscosity: 262.5 ± 8.1 mPa·s
  speed of sound: 1672.5 ± 2.9 m/s
  mass density: 1262.06 ± 1.4 kg/m3
[1]; 288.15 K
  surface tension liquid-gas: 51.72 ± 0.56 mN/m
  electrical conductivity: 0.215 ± 0.006 S/m
  viscosity: 220.8 ± 6.2 mPa·s
  speed of sound: 1666.2 ± 2.9 m/s
  mass density: 1260.19 ± 1.4 kg/m3
[1]; 290.65 K
  surface tension liquid-gas: 51.53 ± 0.56 mN/m
  electrical conductivity: 0.252 ± 0.007 S/m
  viscosity: 186.9 ± 4.7 mPa·s
  speed of sound: 1660 ± 2.9 m/s
  mass density: 1258.42 ± 1.4 kg/m3
[1]; 293.15 K
  surface tension liquid-gas: 51.29 ± 0.56 mN/m
  electrical conductivity: 0.302 ± 0.009 S/m
  viscosity: 160 ± 3.7 mPa·s
  speed of sound: 1653.9 ± 2.9 m/s
  mass density: 1256.64 ± 1.4 kg/m3
[1]; 295.65 K
  surface tension liquid-gas: 51.15 ± 0.56 mN/m
  electrical conductivity: 0.352 ± 0.009 S/m
  viscosity: 137.7 ± 2.9 mPa·s
  speed of sound: 1647.8 ± 2.9 m/s
  mass density: 1254.86 ± 1.4 kg/m3
[1]; 298.15 K
  surface tension liquid-gas: 50.97 ± 0.55 mN/m
  electrical conductivity: 0.401 ± 0.009 S/m
  viscosity: 119.5 ± 2.2 mPa·s
  speed of sound: 1641.7 ± 2.9 m/s
  mass density: 1253.08 ± 1.4 kg/m3
[1]; 300.65 K
  surface tension liquid-gas: 50.73 ± 0.55 mN/m
  electrical conductivity: 0.456 ± 0.01 S/m
  viscosity: 103.8 ± 1.8 mPa·s
  speed of sound: 1635.7 ± 2.9 m/s
  mass density: 1251.3 ± 1.4 kg/m3
[1]; 303.15 K
  surface tension liquid-gas: 50.51 ± 0.55 mN/m
  electrical conductivity: 0.516 ± 0.011 S/m
  viscosity: 90.75 ± 1.4 mPa·s
  speed of sound: 1629.8 ± 2.9 m/s
  mass density: 1249.52 ± 1.4 kg/m3
[1]; 305.65 K
  surface tension liquid-gas: 50.32 ± 0.55 mN/m
  electrical conductivity: 0.581 ± 0.012 S/m
  viscosity: 79.75 ± 1.1 mPa·s
  speed of sound: 1623.8 ± 2.9 m/s
  mass density: 1247.73 ± 1.4 kg/m3
[1]; 308.15 K
  surface tension liquid-gas: 50.12 ± 0.54 mN/m
  electrical conductivity: 0.649 ± 0.013 S/m
  viscosity: 70.61 ± 0.89 mPa·s
  speed of sound: 1618 ± 2.9 m/s
  mass density: 1245.95 ± 1.4 kg/m3
[1]; 310.65 K
  surface tension liquid-gas: 49.93 ± 0.54 mN/m
  electrical conductivity: 0.722 ± 0.014 S/m
  viscosity: 62.81 ± 0.74 mPa·s
  speed of sound: 1612.1 ± 2.9 m/s
  mass density: 1244.18 ± 1.4 kg/m3
[1]; 313.15 K
  surface tension liquid-gas: 49.79 ± 0.54 mN/m
  electrical conductivity: 0.799 ± 0.015 S/m
  viscosity: 56.02 ± 0.62 mPa·s
  speed of sound: 1606.3 ± 2.9 m/s
  mass density: 1242.4 ± 1.4 kg/m3
[1]; 315.65 K
  surface tension liquid-gas: 49.54 ± 0.54 mN/m
  electrical conductivity: 0.881 ± 0.016 S/m
  viscosity: 50.22 ± 0.55 mPa·s
  speed of sound: 1600.5 ± 2.9 m/s
  mass density: 1240.63 ± 1.4 kg/m3
[1]; 318.15 K
  surface tension liquid-gas: 49.41 ± 0.54 mN/m
  electrical conductivity: 0.965 ± 0.018 S/m
  viscosity: 45.19 ± 0.52 mPa·s
  speed of sound: 1594.8 ± 2.9 m/s
  mass density: 1238.86 ± 1.4 kg/m3
[1]; 320.65 K
  surface tension liquid-gas: 49.21 ± 0.54 mN/m
  electrical conductivity: 1.07 ± 0.019 S/m
  viscosity: 40.86 ± 0.47 mPa·s
  speed of sound: 1589 ± 2.9 m/s
  mass density: 1237.1 ± 1.4 kg/m3
[1]; 323.15 K
  surface tension liquid-gas: 49.03 ± 0.53 mN/m
  electrical conductivity: 1.15 ± 0.019 S/m
  viscosity: 36.99 ± 0.42 mPa·s
  speed of sound: 1583.3 ± 2.9 m/s
  mass density: 1235.33 ± 1.4 kg/m3
[1]; 325.65 K
  surface tension liquid-gas: 48.82 ± 0.53 mN/m
  electrical conductivity: 1.26 ± 0.021 S/m
  viscosity: 33.84 ± 0.39 mPa·s
  speed of sound: 1577.6 ± 2.9 m/s
  mass density: 1233.58 ± 1.4 kg/m3
[1]; 328.15 K
  surface tension liquid-gas: 48.7 ± 0.53 mN/m
  electrical conductivity: 1.37 ± 0.023 S/m
  viscosity: 30.72 ± 0.35 mPa·s
  speed of sound: 1572 ± 2.9 m/s
  mass density: 1231.82 ± 1.4 kg/m3
[1]; 330.65 K
  surface tension liquid-gas: 48.46 ± 0.53 mN/m
  electrical conductivity: 1.48 ± 0.024 S/m
  viscosity: 28.09 ± 0.32 mPa·s
  speed of sound: 1566.3 ± 2.9 m/s
  mass density: 1230.07 ± 1.3 kg/m3
[1]; 333.15 K
  surface tension liquid-gas: 48.3 ± 0.53 mN/m
  electrical conductivity: 1.6 ± 0.026 S/m
  viscosity: 25.81 ± 0.29 mPa·s
  speed of sound: 1560.7 ± 2.9 m/s
  mass density: 1228.32 ± 1.3 kg/m3
[1]; 335.65 K
  surface tension liquid-gas: 48.1 ± 0.52 mN/m
  electrical conductivity: 1.73 ± 0.027 S/m
  viscosity: 23.78 ± 0.27 mPa·s
  speed of sound: 1555.1 ± 2.9 m/s
  mass density: 1226.57 ± 1.3 kg/m3
[1]; 338.15 K
  surface tension liquid-gas: 47.86 ± 0.52 mN/m
  electrical conductivity: 1.87 ± 0.029 S/m
  viscosity: 21.97 ± 0.25 mPa·s
  speed of sound: 1549.5 ± 2.9 m/s
  mass density: 1224.83 ± 1.3 kg/m3
[2]; 278.15 K
  molar heat capacity at constant pressure: 352 ± 8 J/K/mol
[2]; 280.65 K
  molar heat capacity at constant pressure: 354 ± 8 J/K/mol
[2]; 283.15 K
  molar heat capacity at constant pressure: 355 ± 8 J/K/mol
[2]; 285.65 K
  molar heat capacity at constant pressure: 356 ± 8 J/K/mol
[2]; 288.15 K
  molar heat capacity at constant pressure: 357 ± 8 J/K/mol
[2]; 290.65 K
  molar heat capacity at constant pressure: 359 ± 8 J/K/mol
[2]; 293.15 K
  molar heat capacity at constant pressure: 361 ± 8 J/K/mol
[2]; 295.65 K
  molar heat capacity at constant pressure: 362 ± 8 J/K/mol
[2]; 298.15 K
  molar heat capacity at constant pressure: 363 ± 8 J/K/mol
[2]; 300.65 K
  molar heat capacity at constant pressure: 365 ± 8 J/K/mol
[2]; 303.15 K
  molar heat capacity at constant pressure: 366 ± 8 J/K/mol
[2]; 305.65 K
  molar heat capacity at constant pressure: 367 ± 8 J/K/mol
[2]; 308.15 K
  molar heat capacity at constant pressure: 369 ± 8 J/K/mol
[2]; 310.65 K
  molar heat capacity at constant pressure: 370 ± 8 J/K/mol
[2]; 313.15 K
  molar heat capacity at constant pressure: 372 ± 8 J/K/mol
[2]; 315.65 K
  molar heat capacity at constant pressure: 373 ± 8 J/K/mol
[2]; 318.15 K
  molar heat capacity at constant pressure: 374 ± 8 J/K/mol
[2]; 320.65 K
  molar heat capacity at constant pressure: 376 ± 8 J/K/mol
[2]; 323.15 K
  molar heat capacity at constant pressure: 377 ± 8 J/K/mol
[2]; 325.65 K
  molar heat capacity at constant pressure: 378 ± 8 J/K/mol
[2]; 328.15 K
  molar heat capacity at constant pressure: 380 ± 8 J/K/mol
[2]; 330.65 K
  molar heat capacity at constant pressure: 381 ± 8 J/K/mol
[2]; 333.15 K
  molar heat capacity at constant pressure: 383 ± 8 J/K/mol
[2]; 335.65 K
  molar heat capacity at constant pressure: 384 ± 8 J/K/mol
[2]; 338.15 K
  molar heat capacity at constant pressure: 385 ± 8 J/K/mol
[3]; 283.15 K
  refractive index: 1.44855 ± 0.00051
[3]; 285.65 K
  refractive index: 1.44789 ± 0.00051
[3]; 288.15 K
  refractive index: 1.44723 ± 0.00051
[3]; 290.65 K
  refractive index: 1.44655 ± 0.00051
[3]; 293.15 K
  refractive index: 1.44588 ± 0.00051
[3]; 295.65 K
  refractive index: 1.44522 ± 0.00051
[3]; 298.15 K
  refractive index: 1.44455 ± 0.00051
[3]; 300.65 K
  refractive index: 1.44389 ± 0.00051
[3]; 303.15 K
  refractive index: 1.44322 ± 0.00051
[3]; 305.65 K
  refractive index: 1.44256 ± 0.00051
[3]; 308.15 K
  refractive index: 1.4419 ± 0.00051
[3]; 310.65 K
  refractive index: 1.44123 ± 0.00051
[3]; 313.15 K
  refractive index: 1.44057 ± 0.00051
[3]; 315.65 K
  refractive index: 1.4399 ± 0.00051
[3]; 318.15 K
  refractive index: 1.43924 ± 0.00051
[3]; 320.65 K
  refractive index: 1.43859 ± 0.00051
[3]; 323.15 K
  refractive index: 1.43792 ± 0.00051
[3]; 325.65 K
  refractive index: 1.43726 ± 0.00051
[3]; 328.15 K
  refractive index: 1.43659 ± 0.00051
[3]; 330.65 K
  refractive index: 1.43593 ± 0.00051
[3]; 333.15 K
  refractive index: 1.43528 ± 0.00051
[3]; 335.65 K
  refractive index: 1.43463 ± 0.00051
[3]; 338.15 K
  refractive index: 1.43398 ± 0.00051
